Measurements from paper PMC10334471, “Tumor-targeted dual-action NSAID-platinum(IV) anticancer prodrugs” (Inorganic Chemistry Frontiers, 2023).

Experiments:
[1] = target: T1, albumin (Bos taurus, UniProt P02769); experiment: Albumin binding in fetal calf serum by SEC-ICP-MS; assay type: in vitro ADME; details: 100 μM in FCS (150 mM phosphate buffer, pH 7.4), 37 °C, up to 6 h
T1 construct: Fetal calf serum was purchased from Sigma-Aldrich and buffered with 150 mM phosphate pH 7.4; tissue Sigma-Aldrich; host or cells: fetal calf serum
Experimental: Fetal calf serum was purchased from Sigma-Aldrich and buffered with 150 mM phosphate pH 7.4 in order to guarantee a stable pH. The platinum(IV) complexes (5 mM) were dissolved in 150 mM phosphate buffer (pH 7.4) and diluted 1 : 50 in the buffered serum to obtain a final concentration of 100 μM. The samples were then incubated in the autosampler at 37 °C and analyzed every 1 h for 6 h. Between each sample a pure water blank was measured. For SEC-ICP-MS measurements an Agilent 1260 Infinity system coupled to an Agilent 7800 ICP-MS equipped with a dynamic reaction cell was used. Oxygen (purity 5.5, Messer Austria GmbH, Gumpoldskirchen, Austria) was used as reaction gas.

[2] = tested on: CT26 (murine); experiment: MTT assay, 72 h, CT26; assay type: cell-based; details: 72 h treatment, mean ± SD
Experimental: (§1) All cell cultures were grown at 37 °C in a humidified atmosphere containing 5% CO2. HCT116, RKO and HT-29 cells were cultured in McCoy's 5A Modified Media (Sigma-Aldrich, St. Louis, MO, USA) supplemented with 10% heat-inactivated fetal calf serum (FCS, PAA, Linz, Austria) and 2 mM glutamine (Sigma-Aldrich, St. Louis, MO, USA). The murine (Balb/c) colon cancer cell model CT26 (purchased from American Type Culture Collection, Manassas, VA, USA) were cultured in DMEM/F12 supplemented with 10% fetal calf serum (FCS). SW480 and Caco-2 cells were cultured in MEME media supplemented with 10% and 20% FCS, respectively. All cell culture media and reagents were purchased from Sigma-Aldrich Austria. […] The cells were regularly checked for Mycoplasma contamination.
(§2) Depending on their proliferation rate, cells were seeded at a density of 3500–5000 cells per well in 96-well microtiter plates and allowed to adhere overnight. […] Cell viability was determined using the 3-(4,5-dimethylthiazol-2-yl)-2,5-diphenyltetrazolium bromide (MTT) assay (EZ4U, Biomedia, Vienna, Austria) according to the manufacturer's recommendation. Depending on the metabolic capacity, the cell lines were incubated between one and three hours at 37 °C and subsequently absorbance was measured at 450 nm (620 nm as a reference) with a Tecan Reader infinite® M200Pro (Tecan Group Ltd, Switzerland). Data were analyzed using Graph Pad prism (version 8.0.1) by using the point-to-point function. […] Following, dose–response curves were calculated using the point-to-point function.

[3] = Stability in aqueous buffer pH 7.4 (HPLC); assay type: physicochemical; details: 1 mM, 250 mM phosphate buffer pH 7.4, 20 °C, 25 h, HPLC
Experimental: (§3) Phosphate buffer (250 mM, pH 7.4) containing 1 mM platinum compound was incubated at 20 °C, with and without the addition of 10 eq. L-ascorbic acid. […] A gradient of 5–95% over 5 minutes was used. To evaluate the current state of the reaction, the peak area of the parental complex was used.

[4] = tested on: HT-29; experiment: MTT assay, 72 h, HT-29; assay type: cell-based; details: for IC50: HT-29, MTT, 72 h treatment, mean ± SD
Experimental: as §1, §2

[5] = tested on: HCT116; experiment: MTT assay, 72 h, HCT116; assay type: cell-based; details: 72 h treatment, mean ± SD
Experimental: as §1, §2

[6] = tested on: Caco-2; experiment: MTT assay, 72 h, Caco-2; assay type: cell-based; details: Caco-2, MTT, 72 h treatment, mean ± SD
Experimental: as §1, §2

[7] = Preliminary oral tolerability experiments in tumor-free mice; assay type: in vivo; details: 52.8 mg kg^−1 p.o.
Description: It is well known that COX-2 is involved in the paracrine signaling between immune cells, resulting in a pro-tumorigenic tumor microenvironment.[10,33] Consequently, we got interested in the impact of the Asa ligand on the anticancer activity of the drugs in vivo. Therefore, we chose immune-competent murine colon cancer CT26 allografts as test system, which were characterized by high COX-2 expression (Fig. S4 ^†). […] Thus, the experiment was stopped on day 19 due to a distinct drop in body weight in these animals. As Asa is clinically applied p.o., we tested the efficacy of OxAsaOAc and asplatin in an oral application setting. […] For the therapy experiment, the animals were treated with OxAsaOAc and asplatin for five subsequent days over two weeks. […] Consequently, we concluded that the drug doses reaching the tumor in these therapy settings were insufficient, which prompted us to aim for carrier systems with enhanced tumor-targeting properties.

[8] = tested on: CT26 allografts; experiment: Oral anticancer activity in CT26 allografts; assay type: in vivo, Balb/c mice; details: OxAsaOAc 52.8 mg kg^−1 p.o., five subsequent days over two weeks
Experimental: It is well known that COX-2 is involved in the paracrine signaling between immune cells, resulting in a pro-tumorigenic tumor microenvironment.[10,33] Consequently, we got interested in the impact of the Asa ligand on the anticancer activity of the drugs in vivo. […] As Asa is clinically applied p.o., we tested the efficacy of OxAsaOAc and asplatin in an oral application setting. […] For the therapy experiment, the animals were treated with OxAsaOAc and asplatin for five subsequent days over two weeks.
(§4) All experiments were executed according to the regulation of the Ethics Committee for the Care and Use of Laboratory Animals at the Medical University Vienna. 8–12 weeks old BALB/c were kept in a pathogen-free environment with a 12 h light dark-cycle with ad libitum access to food and water. Every procedure was performed in a laminar airflow under sterile condition. Tumor growth and possible side effects of drug treatment were evaluated by daily recording the tumor size by caliper measurement according to the formula length × width^2/2 and parameters of the animal's overall health conditions.

[9] = tested on: colorectal cancer cell line panel; experiment: MTT assays, 72 h, whole panel comparison; assay type: cell-based; details: in most cell lines of the panel
Experimental: All cell cultures were grown at 37 °C in a humidified atmosphere containing 5% CO2. HCT116, RKO and HT-29 cells were cultured in McCoy's 5A Modified Media (Sigma-Aldrich, St. Louis, MO, USA) supplemented with 10% heat-inactivated fetal calf serum (FCS, PAA, Linz, Austria) and 2 mM glutamine (Sigma-Aldrich, St. Louis, MO, USA). The murine (Balb/c) colon cancer cell model CT26 (purchased from American Type Culture Collection, Manassas, VA, USA) were cultured in DMEM/F12 supplemented with 10% fetal calf serum (FCS). SW480 and Caco-2 cells were cultured in MEME media supplemented with 10% and 20% FCS, respectively. All cell culture media and reagents were purchased from Sigma-Aldrich Austria. […]
Depending on their proliferation rate, cells were seeded at a density of 3500–5000 cells per well in 96-well microtiter plates and allowed to adhere overnight. […] Cell viability was determined using the 3-(4,5-dimethylthiazol-2-yl)-2,5-diphenyltetrazolium bromide (MTT) assay (EZ4U, Biomedia, Vienna, Austria) according to the manufacturer's recommendation. Depending on the metabolic capacity, the cell lines were incubated between one and three hours at 37 °C and subsequently absorbance was measured at 450 nm (620 nm as a reference) with a Tecan Reader infinite® M200Pro (Tecan Group Ltd, Switzerland). Data were analyzed using Graph Pad prism (version 8.0.1) by using the point-to-point function. […]

[10] = tested on: RKO; experiment: MTT assay, 72 h, RKO; assay type: cell-based; details: 72 h treatment, mean ± SD
Experimental: as §1, §2

[11] = tested on: SW480; experiment: MTT assay, 72 h, SW480; assay type: cell-based; details: 72 h treatment, mean ± SD
Experimental: as §1, §2

[12] = Released salicylic acid in serum of mice after single i.v. administration (UHPLC-MS); details: for Free salicylic acid in serum, share of administered dose: tumor-free Balb/c mice
Experimental: After 10 min, 1 h and 24 h blood was collected via the facial vein. Serum was isolated by centrifugation at 900 g for 10 min for two times and stored at −80 °C. Platinum content was detected by ICP-MS measurements, using an Agilent 7800 (Agilent Technologies, Tokyo, Japan) equipped with an Agilent SPS 4 autosampler (Agilent Technologies, Tokyo, Japan) and a MicroMist nebulizer. The Agilent MassHunter software package (Workstation Software, Version C.01.04, 2018) was used for data evaluation. The ICP-MS operation parameters are given in Table S1. ^† Salicylic acid was extracted and detected as described above.

[13] = tested on: CT26 allografts; experiment: Anticancer activity i.v. in CT26-bearing mice; assay type: in vivo, Balb/c mice; details: i.v., 4-times over 2 weeks, doses equimolar to 9 mg kg^−1 oxaliplatin
Experimental: as §4
(§5) CT26 cells (5 × 10^5 cells in 50 μl serum-free medium) were injected s.c. into the right flank of female BALB/c mice. […] Asa was treated orally using 50 mg kg^−1 in 5% DMSO/0.9% NaCl. Every day, the animals were monitored for the overall health conditions. Additionally, tumor size was measured. In case of a decreased body weight of ∼20% or ulcerated tumors, animals were sacrificed by cervical dislocation and tumors as well as organs were collected.

[14] = Reduction kinetics with 10 eq. ascorbic acid (UHPLC); assay type: physicochemical; details: 1 mM, 250 mM phosphate buffer pH 7.4, 20 °C, 10 eq. ascorbic acid
Experimental: as §3

[15] = tested on: HCT116/OxR; experiment: MTT assay, 72 h, HCT116/OxR (oxaliplatin-resistant); assay type: cell-based; details: 72 h treatment, mean ± SD
Experimental: as §1, §2

[16] = tested on: CT26 allografts; assay type: in vivo; details: oxaliplatin 9 mg kg^−1 i.v.
Experimental: as §4, §5

[17] = tested on: CT26 allografts; design: method as in not given; details: reported MTD; ref not given; cited from earlier work

T1 sequence (P02769 25-607): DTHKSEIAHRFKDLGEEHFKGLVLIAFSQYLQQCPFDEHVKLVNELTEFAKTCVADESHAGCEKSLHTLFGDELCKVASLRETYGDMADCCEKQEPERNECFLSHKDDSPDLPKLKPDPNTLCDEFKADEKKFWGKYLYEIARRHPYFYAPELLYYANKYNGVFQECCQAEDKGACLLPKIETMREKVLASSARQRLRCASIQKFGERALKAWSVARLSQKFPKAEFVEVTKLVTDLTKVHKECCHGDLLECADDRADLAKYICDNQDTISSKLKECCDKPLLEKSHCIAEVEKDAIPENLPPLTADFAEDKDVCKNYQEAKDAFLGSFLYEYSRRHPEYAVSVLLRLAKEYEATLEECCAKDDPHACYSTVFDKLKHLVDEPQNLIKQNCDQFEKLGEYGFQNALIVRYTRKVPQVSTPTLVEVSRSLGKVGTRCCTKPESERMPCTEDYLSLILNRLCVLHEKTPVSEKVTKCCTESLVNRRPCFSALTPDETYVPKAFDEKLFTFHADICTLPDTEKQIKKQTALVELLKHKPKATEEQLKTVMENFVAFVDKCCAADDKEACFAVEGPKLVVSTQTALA

SMILES: CC(=O)Oc1ccccc1C(=O)[O][Pt-2]12([O]C(C)=O)([NH2+][C@@H]3CCCC[C@H]3[NH2+]1)[O]C(=O)C(=O)[O]2 [OxAsaOAc, (OC-6-44)-acetato(2-acetoxybenzoato)[(1R,2R)-1,2-cyclohexanediamino]oxalatoplatinum(IV)]
- Binding to albumin (or any other protein) [1]: < 5%
- IC50 [2]: 12.8 ± 0.8 µM
- Stability in aqueous solution [3]: high stability
- Fold higher activity than Ox(OAc)2 ([4]; HT29 cells): 4 fold
- IC50 [4]: 32.7 ± 5.5 µM
- IC50 [5]: 9.9 ± 1.5 µM
- IC50 [6]: 17.9 ± 2.1 µM
- Tolerability [7]: well tolerable
- Impact on tumor growth [8]: none of the drugs had any impact on tumor growth
- Fold more active than Ox(OAc)2 [9]: about 2 fold
- IC50 [10]: 4.3 ± 0.4 µM
- IC50 [11]: 11.2 ± 1.3 µM
- Free salicylic acid in serum, share of administered dose ([12]; 10 min after single i.v. dose equimolar to 9 mg kg^−1 oxaliplatin): < 5 mol%
- Free salicylic acid in serum, share of administered dose ([12]; 1 h after single i.v. dose equimolar to 9 mg kg^−1 oxaliplatin): < 5 mol%
- Salicylic acid level in serum ([12]; 24 h after single i.v. dose equimolar to 9 mg kg^−1 oxaliplatin, below LOD): < 3 µM
- Tolerability (body weight) [13]: well tolerated
- Anticancer activity (tumor growth, overall survival) ([13]; CT26): significant impact on both tumor growth as well as overall survival
- Intact complex after 6 h ([14]; 6 h): 92%
- Intact complex after 24 h ([14]; 24 h): 53%
- IC50 [15]: 42.8 ± 4.3 µM

SMILES: O=C1[O][Pt]2([NH][C@@H]3CCCC[C@H]3[NH]2)[O]C1=O [Oxaliplatin, oxaliplatin]
- IC50 [2]: 1.8 ± 0.2 µM
- IC50 [4]: 5.3 ± 1.2 µM
- IC50 [5]: 0.8 ± 0.1 µM
- Response of tumor model (tumor growth) [16]: responsiveness
- IC50 [10]: 0.4 ± 0.04 µM
- MTD [17]: 9 mg/kg
- IC50 [11]: 1 ± 0.2 µM
- IC50 [15]: 27.8 ± 5.2 µM
